Test results reported in patent publication US20060199789A1, “medical composition” (Kyowa Hakko Kogyo Co., Ltd., priority 2003, published 2006).

Key:
eosinophils in BALF = assay: Antigen-induced respiratory eosinophil infiltration in rat (BALF); format: in vivo, BN rats; details: Compound (I) 30 μg/rat, budesonide 10 μg/rat; for Inhibition ratio (number of eosinophils) / Number of eosinophils: OVA-sensitized BN rats, intrabronchial 30 min before antigen challenge, BAL 24 h after; for Number of eosinophils: mean±standard error
Method: (§1) Inhibitory Effect of Combined Administration of Compound (I) and Steroid Agent on Antigen-Induced Respiratory Eosinophil and Neutrophil Infiltration in Rat
(§2) The test was conducted according to a known method (Pulmonary Pharmacology, vol. 8, pp. 83-89 (1995)).
(§3) In the test, 6-week-old male BN rats (Charles River Japan) were used. The rats were placed in aluminum cages each containing 5 to 6 rats in a breeding room at room temperature (19° C. to 25° C.) and a humidity of 30% to 70% under illumination for 12 hours a day (7 a.m. to 7 p.m.) and bred by free intake of commercially available feeds and water.
(§4) A preparation (Compound (I)-lactose preparation) containing 5 mg of lactose (produced by DVM Corporation) to 1 mg of Compound (I) was prepared, and a suspension for administering Compound (I) was prepared by suspending the Compound (I)-lactose preparation in a 0.125 wt/vol % tyloxapol aqueous solution (ALEVAIRE: registered trade mark, produced by Azwell Inc.) so that the concentration of Compound (I) was 150 μg/mL. Also, a suspension for administering budesonide was prepared by suspending lactose and budesonide (manufactured by Sigma Corporation) in a 0.125 wt/vol % tyloxapol aqueous solution so that the concentrations of lactose and budesonide were 750 μg/mL and 50 μg/mL, respectively. Furthermore, a suspension for combined administration was prepared by suspending budesonide and the Compound (I)-lactose preparation prepared as described above in a 0.125 wt/vol % tyloxapol aqueous solution so that the concentrations of budesonide and Compound (I) were 50 μg/mL and 150 μg/mL, respectively. On the other hand, a solvent for administration was prepared by dissolving lactose in a 0.125 wt/vol % tyloxapol aqueous solution so that the concentration was 7.5 mg/mL.
The rats were subcutaneously administered with 1 mL of a suspension of 1 mg of ovalbumin (OVA, manufactured by Sigma Co.) and 200 mg of aluminum hydroxide (manufactured by Wako Pure Chemicals Industries, Ltd.) suspended in 1 mL of physiological saline (manufactured by Otsuka Pharmaceutical Co., Ltd.). Then, 0.5 mL of a suspension of killed Bordetella pertussis cells (2×10^10 cells/1 mL physiological saline, manufactured by Kaken Pharmaceutical Co., Ltd.) was intraperitoneally administered to perform active sensitization. Fourteen days after the active sensitization, the rats were placed in a plastic chamber (30×50×30 cm), and an 1 wt/vol % OVA physiological saline solution was nebulized for 10 minutes using an ultrasonic nebulizer (manufactured by Omron Corporation) to perform antigen challenge. Thirty minutes before the antigen-challenge, 100 μL of each of the suspensions for administration prepared as described above was intrabronchially administered to each of the right and left bronchi, i.e., administered in a total of 200 μL (medicine-administered group). Similarly, thirty minutes before the antigen challenge, a group which the solvent for administration was intrabronchially administered (solvent-administered group) was prepared. Also, a group which the solvent for administration was intrabronchially administered and a physiological saline was nebulized instead of the 1 wt/vol % OVA physiological saline solution (physiological saline-administered group) was prepared. […]
(§5) The total number of the leukocytes in BALF was measured with an automatic leukocyte counter (manufactured by Nihon Kohden Corporation). […]

neutrophils in BALF = assay: Antigen-induced respiratory neutrophil infiltration in rat (BALF); format: in vivo, BN rats; details: Compound (I) 30 μg/rat, budesonide 10 μg/rat; for Number of neutrophils: mean±standard error
Method: as §1, §2, §3, §4
The rats were subcutaneously administered with 1 mL of a suspension of 1 mg of ovalbumin (OVA, manufactured by Sigma Co.) and 200 mg of aluminum hydroxide (manufactured by Wako Pure Chemicals Industries, Ltd.) suspended in 1 mL of physiological saline (manufactured by Otsuka Pharmaceutical Co., Ltd.). Then, 0.5 mL of a suspension of killed Bordetella pertussis cells (2×10^10 cells/1 mL physiological saline, manufactured by Kaken Pharmaceutical Co., Ltd.) was intraperitoneally administered to perform active sensitization. Fourteen days after the active sensitization, the rats were placed in a plastic chamber (30×50×30 cm), and an 1 wt/vol % OVA physiological saline solution was nebulized for 10 minutes using an ultrasonic nebulizer (manufactured by Omron Corporation) to perform antigen challenge. […]
as §5

[1] = OVA-sensitized BN rats, intrabronchial 30 min before antigen challenge, BAL 24 h after

Structure (SMILES)	Inhibition ratio (number of eosinophils) (eosinophils in BALF)	Number of eosinophils (eosinophils in BALF)	Number of neutrophils (neutrophils in BALF; [1])	Inhibitory effect against increases in the number of eosinophils in BALF (in words) (eosinophils in BALF; sole or combined)	Effect on the number of neutrophils in BALF (in words) (neutrophils in BALF; sole or combined)	Inhibition ratio (number of neutrophils) (neutrophils in BALF; OVA-sensitized BN rats, intrabronchial 30 min before antigen challenge, BAL 24 h after, N.E. = No effect)
CCCC1O[C@@H]2C[C@H]3[C@@H]4CCC5=CC(=O)C=C[C@]5(C)[C@H]4[C@@H](O)C[C@]3(C)[C@]2(C(=O)CO)O1 (stereo partly drawn) [Budesonide, budesonide, reference compound]	54%	0.26 ± 0.06 10^6/BALF	2.50 ± 0.31 10^6/BALF			
COc1ccc(C(=O)Cc2c(Cl)cncc2Cl)c2c1OC1(CCCC1)O2 [Compound (I), 7-[2-(3,5-dichloro-4-pyridyl)-1-oxoethyl]-4-methoxy-spiro[1,3-benzodioxol-2,1′-cyclopentane]]	54%	0.26 ± 0.08 10^6/BALF	2.28 ± 0.27 10^6/BALF	inhibitory effect against increases in the number of eosinophils was exhibited	not significantly affected	3%
